US20250134890A1, “ANTIMALARIAL HEXAHYDROPYRIMIDINE ANALOGUES” (UCB BIOPHARMA SRL, priority 2022, published 2025)
Counter-ions that a name gives are not always drawn.

Tested on: Plasmodium falciparum: 3D7 strain
Test: P. falciparum 3D7 asexual blood stage assay (SYBR green readout)
Assay type: cell-based
Settings: Plasmodium falciparum, 3D7, Erythrocyte, 72 h, P. falciparum 3D7 in human erythrocytes, 72 h incubation, SYBR green fluorescence
Summary of the method: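 3D7-infected erythrocytes (5% haematocrit, 0.5% parasitaemia) were exposed 72 h at 37 °C under 1% O2/3% CO2 to a 20-point titration (50,000-15 nM final, 0.5% DMSO). Parasite DNA was read by SYBR green fluorescence after overnight lysis. Percent inhibition was set against mefloquine and DMSO, and EC50 came from a biphasic two-site fit.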

`C[C@H]1C[C@@H](N2C(=N)N[C@](C)(c3cccc(-c4cn(Cc5ccncc5)nn4)c3Cl)CC2=O)CCO1` [Example 120, (6S)-6-{2-Chloro-3-[1-(pyridin-4-ylmethyl)-1,2,3-triazol-4-yl]-phenyl}-2-imino-6-methyl-3-[(2S,4S)-2-methyltetrahydropyran-4-yl]hexahydropyrimidin-4-one trifluoroacetic acid salt] showed an IC50 of 507 nM.

`C=C(c1ccccc1)n1cc(-c2cccc([C@]3(C)CC(=O)N([C@H]4CCO[C@@H](C)C4)C(=N)N3)c2Cl)nn1` [Example 121, (6S)-6-{2-Chloro-3-[1-(1-phenyl-vinyl)-1,2,3-triazol-4-yl]phenyl}-2-imino-6-methyl-3-[(2S,4S)-2-methyltetrahydropyran-4-yl]-hexahydropyrimidin-4-one trifluoroacetic acid salt] gave an IC50 of 185 nM.

With `C[C@H]1C[C@@H](N2C(=N)N[C@](C)(c3cccc(-c4cn(C5CCC5)nn4)c3Cl)CC2=O)CCO1` [Example 122, (6S)-6-[2-Chloro-3-(1-cyclobutyl-1,2,3-triazol-4-yl)phenyl]-2-imino-6-methyl-3-[(2S,4S)-2-methyl-tetrahydropyran-4-yl]hexahydro-pyrimidin-4-one trifluoroacetic acid salt] the IC50 was 101 nM.

With `COCCn1cc(-c2cccc([C@]3(C)CC(=O)N([C@H]4CCO[C@@H](C)C4)C(=N)N3)c2Cl)nn1` [Example 123, (6S)-6-{2-Chloro-3-[1-(2-methoxy-ethyl)-1,2,3-triazol-4-yl]phenyl}-2-imino-6-methyl-3-[(2S,4S)-2-methyltetrahydropyran-4-yl]-hexahydropyrimidin-4-one trifluoroacetic acid salt] the IC50 was 542 nM.

`C[C@H]1C[C@@H](N2C(=N)N[C@](C)(c3cccc(-c4cn(Cc5ccccc5)nn4)c3Cl)CC2=O)CCO1` [Example 124, (6S)-6-[3-(1-Benzyl-1,2,3-triazol-4-yl)-2-chlorophenyl]-2-imino-6-methyl-3-[(2S,4S)-2-methyl-tetrahydropyran-4-yl]hexahydro-pyrimidin-4-one trifluoroacetic acid salt] was tested, and the IC50 was 216 nM.

Compound `CC(n1cc(-c2cccc([C@]3(C)CC(=O)N([C@H]4CCO[C@@H](C)C4)C(=N)N3)c2Cl)nn1)C12CC(CO1)C2` (stereo partly drawn) [Example 125, (6S)-6-(2-Chloro-3-{1-[1-(2-oxa-bicyclo[2.1.1]hexan-1-yl)ethyl]-1,2,3-triazol-4-yl}phenyl)-2-imino-6-methyl-3-[(2S,4S)-2-methyl-tetrahydropyran-4-yl]hexahydro-pyrimidin-4-one trifluoroacetic acid salt] has an IC50 of 220 nM.

For `C[C@H]1C[C@@H](N2C(=N)N[C@](C)(c3cccc(-c4cn(-c5ccccc5)nn4)c3Cl)CC2=O)CCO1` [Example 126, (6S)-6-[2-Chloro-3-(1-phenyl-1,2,3-triazol-4-yl)phenyl]-2-imino-6-methyl-3-[(2S,4S)-2-methyl-tetrahydropyran-4-yl]hexahydro-pyrimidin-4-one trifluoroacetic acid salt], the IC50 was 5 nM.

Work on `CCCCn1cc(-c2cccc([C@]3(C)CC(=O)N([C@H]4CCO[C@@H](C)C4)C(=N)N3)c2Cl)nn1` [Example 127, (6S)-6-[3-(1-Butyl-1,2,3-triazol-4-yl)-2-chlorophenyl]-2-imino-6-methyl-3-[(2S,4S)-2-methyl-tetrahydropyran-4-yl]hexahydro-pyrimidin-4-one trifluoroacetic acid salt] yielded an IC50 of 100 nM.

`C[C@H](c1cccnc1)n1cc(-c2cccc([C@]3(C)CC(=O)N([C@H]4CCO[C@@H](C)C4)C(=N)N3)c2Cl)nn1` [Example 128, (6S)-6-(2-Chloro-3-{1-[(1R)-1-(pyridin-3-yl)ethyl]-1,2,3-triazol-4-yl}phenyl)-2-imino-6-methyl-3-[(2S,4S)-2-methyltetrahydropyran-4-yl]hexahydropyrimidin-4-one trifluoroacetic acid salt] gave an IC50 of 112 nM.

`C[C@H]1C[C@@H](N2C(=N)N[C@](C)(c3cccc(-c4cn(C5CCCNCC5)nn4)c3Cl)CC2=O)CCO1` (stereo partly drawn) [Example 129, (6S)-6-{3-[1-(Azepan-4-yl)-1,2,3-triazol-4-yl]-2-chlorophenyl}-2-imino-6-methyl-3-[(2S,4S)-2-methyltetrahydropyran-4-yl]-hexahydropyrimidin-4-one trifluoroacetic acid salt] showed an IC50 of 11900 nM.
